Experiments:
[1] = system: Neisseria gonorrhoeae (AQ10); experiment: qLAMP assay, Neisseria gonorrhoeae (AQ10), time to positive (Tp); assay type: biochemical
Procedure: Compounds were added to the LAMP reaction mixture containing target-specific primers, dNTPs, DNA polymerase, reverse transcriptase, and the target RNA sequence. This reaction mixture was incubated at 62° C. (or the specified temperature (FIG. 4)) for at least 50 minutes and the increase in fluorescence was assessed to determine the time to positivity (Tp). Data shown in FIGS. 1A-B support that these compounds are compatible with LAMP assays at concentrations up to 16 μM.
For the Neisseria gonorrhoeae (AQ10), there is detrimental impact on Tp observed with Compound 5 at ≥8 μM where a delay in Tp is observed.
Data shown is under clean and eluted vaginal swabs (contrived conditions). Good performance is observed at ≥61° C. There is detrimental impact on performance at <60° C. (delay in Tp).

[2] = Accelerated stability of lyophilized dye, assayed by HPLC; assay type: physicochemical
Procedure: It was also determined that Compound 3 is stable under accelerated stability conditions from lyophilized chemistry (FIG. 5). As assayed by HPLC, Compound 3 is stable under these conditions at the 3-month time point (98.7±0.33% remaining), corresponding to 6 months stability at room temperature (15-30° C.).

[3] = system: double stranded DNA (dsDNA); experiment: Absorption/emission spectra of dyes with dsDNA; assay type: physicochemical; details: for Stokes shift: 2 μM dye + 2 μM hairpin DNA; for Stokes shift / λem: pH 8.8 isoamplification buffer; for λabs: absorption recorded at 25±2° C.; for λem: fluorescence at 62±2° C.
Procedure: FIG. 6A-F show absorption/emission spectra of dyes with double stranded DNA (dsDNA).
Fluorescence readings (FIGS. 6A-F) were performed using 10 mm path length, 700 μL quartz cuvettes on Horiba Fluorolog-Q fluorometer instrument. All measurements were taken at elevated temperature (62±2° C.) in pH 8.8 isoamplification buffer containing 20 mM Tris-HCl. For each measurement, 2 μM of dye was combined with 2 μM of hairpin DNA. Absorption spectra were recorded at ambient temperature (25±2° C.) on a DeNovix DS-11 spectrophotometer instrument. Normalized spectra are shown for clarity. The benzothiazole dye compounds have large Stokes shift >40 nm, which allows a substantial portion of the output fluorescence to pass through the filter covering the photodiode detection component of the device.

[4] = clean and eluted vaginal swabs (contrived conditions)

Row | Compound | Stokes shift [3] [nm] | λabs [3] [nm] | λem [3] [nm] | temperature of good performance [1, 4] [°C] | temperature with detrimental impact on performance (delay in Tp) [1, 4] [°C] | % remaining ([2]; 40° C., lyophilized, 3-month time point, HPLC) [%] | corresponding stability at room temperature ([2]; room temperature (15-30° C.), extrapolated from 3 months accelerated conditions) [months] | concentration with detrimental impact on Tp (delay in Tp) ([1]; Neisseria gonorrhoeae (AQ10) LAMP, 62° C.) [µM]
1 | COc1ccc2c(c1)S/C(=C\c1cc[n+](C)c(N3CCOCC3)c1)N2C [Compound 3] | 50 | 448 | 498 | ≥ 61 | < 60 | 98.7±0.33 | 6 | –
2 | COc1ccc2c(c1)S/C(=C\c1cc[n+](C)c(-c3ccccc3)c1)N2C [Compound 5] | – | – | – | – | – | – | – | ≥ 8

More lines, main results first:

Row | Stokes shift [3] [nm] | λabs [3] [nm] | λem [3] [nm] | Compound | temperature of good performance [1, 4] [°C] | temperature with detrimental impact on performance (delay in Tp) [1, 4] [°C] | % remaining ([2]; 40° C., lyophilized, 3-month time point, HPLC) [%] | corresponding stability at room temperature ([2]; room temperature (15-30° C.), extrapolated from 3 months accelerated conditions) [months] | concentration with detrimental impact on Tp (delay in Tp) ([1]; Neisseria gonorrhoeae (AQ10) LAMP, 62° C.) [µM]
3 | 38 | 442 | 480 | CN1/C(=C/c2cc[n+](C)c(N3CCOCC3)c2)Sc2ccccc21 [Compound 8] | – | – | – | – | –
4 | 38 | 443 | 481 | CN(C)c1cc(/C=C2\Sc3ccccc3N2C)cc[n+]1C [Compound 10] | – | – | – | – | –
5 | 43 | 510 | 553 | COc1ccc2c(c1)S/C(=C\c1cc[n+](C)c3ccccc13)N2C [Compound 11] | – | – | – | – | –
